Laboratory results as given in PubChem BioAssay (NCI).
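Where inhibition never reached the appropriate level, the endpoint shown equals the highest concentration tested. Otherwise, values were interpolated linearly from a five-concentration, 48-hour dose response in 96-well plates. GI50: concentration for 50% inhibition of growth. TGI denotes the concentration required for complete inhibition of growth.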

Experiments:
Assay in all cases: NCI tumour cell line growth inhibition, 48 h
SNB-19 CNS = tested on: SNB-19 CNS
MOLT-4 leukemia = tested on: MOLT-4 leukemia
SK-MEL-2 melanoma = tested on: SK-MEL-2 melanoma
SK-MEL-5 melanoma = tested on: SK-MEL-5 melanoma
M14 melanoma = tested on: M14 melanoma
ACHN renal = tested on: ACHN renal
NCI-H522 lung = tested on: NCI-H522 lung
MDA-MB-231 breast = tested on: MDA-MB-231 breast
HCT-116 colon = tested on: HCT-116 colon
HL-60(TB) leukemia = tested on: HL-60(TB) leukemia
NCI/ADR-RES ovarian = tested on: NCI/ADR-RES ovarian
786-0 renal = tested on: 786-0 renal
OVCAR-3 ovarian = tested on: OVCAR-3 ovarian
KM12 colon = tested on: KM12 colon
HCT-15 colon = tested on: HCT-15 colon
SW-620 colon = tested on: SW-620 colon
PC-3 prostate = tested on: PC-3 prostate
MDA-MB-435 = tested on: MDA-MB-435
CAKI-1 renal = tested on: CAKI-1 renal
HS 578T breast = tested on: HS 578T breast
SN12C renal = tested on: SN12C renal
A498 renal = tested on: A498 renal
EKVX NSCLC = tested on: EKVX NSCLC
RPMI-8226 leukemia = tested on: RPMI-8226 leukemia
IGROV1 ovarian = tested on: IGROV1 ovarian
COLO 205 colon = tested on: COLO 205 colon
BT-549 breast = tested on: BT-549 breast
HCC-2998 colon = tested on: HCC-2998 colon
UACC-257 melanoma = tested on: UACC-257 melanoma
OVCAR-8 ovarian = tested on: OVCAR-8 ovarian
HT29 colon = tested on: HT29 colon
UACC-62 melanoma = tested on: UACC-62 melanoma
TK-10 renal = tested on: TK-10 renal
MCF7 breast = tested on: MCF7 breast
A549 NSCLC = tested on: A549 NSCLC
SR leukemia = tested on: SR leukemia
K-562 leukemia = tested on: K-562 leukemia
OVCAR-5 ovarian = tested on: OVCAR-5 ovarian
NCI-H23 lung = tested on: NCI-H23 lung
SK-MEL-28 melanoma = tested on: SK-MEL-28 melanoma
UO-31 renal = tested on: UO-31 renal
DU-145 prostate = tested on: DU-145 prostate
RXF 393 renal = tested on: RXF 393 renal
SNB-75 CNS = tested on: SNB-75 CNS
NCI-H226 lung = tested on: NCI-H226 lung
SF-295 CNS = tested on: SF-295 CNS
HOP-62 NSCLC = tested on: HOP-62 NSCLC
U251 CNS = tested on: U251 CNS
SF-268 CNS = tested on: SF-268 CNS
SK-OV-3 ovarian = tested on: SK-OV-3 ovarian
OVCAR-4 ovarian = tested on: OVCAR-4 ovarian
T-47D breast = tested on: T-47D breast
SF-539 CNS = tested on: SF-539 CNS
HOP-92 NSCLC = tested on: HOP-92 NSCLC
CCRF-CEM leukemia = tested on: CCRF-CEM leukemia
NCI-H460 lung = tested on: NCI-H460 lung
LOX IMVI melanoma = tested on: LOX IMVI melanoma
MALME-3M melanoma = tested on: MALME-3M melanoma

Structure (SMILES): CCCn1cnc2c(c1=N)C(c1ccc(OC)cc1)c1sc3c(C)cccc3c1O2 (stereo not given)
- GI50 (SNB-19 CNS): 490 nM
- TGI (SNB-19 CNS): 16000 nM
- GI50 (MOLT-4 leukemia): 569 nM
- TGI (MOLT-4 leukemia): 12700 nM
- GI50 (SK-MEL-2 melanoma): 719 nM
- TGI (SK-MEL-2 melanoma): 21000 nM
- GI50 (SK-MEL-5 melanoma): 411 nM
- TGI (SK-MEL-5 melanoma): 12500 nM
- GI50 (M14 melanoma): 401 nM
- TGI (M14 melanoma): 12500 nM
- GI50 (ACHN renal): 604 nM
- TGI (ACHN renal): 15200 nM
- GI50 (NCI-H522 lung): 409 nM
- TGI (NCI-H522 lung): 7590 nM
- GI50 (MDA-MB-231 breast): 1150 nM
- TGI (MDA-MB-231 breast): 15900 nM
- GI50 (HCT-116 colon): 400 nM
- TGI (HCT-116 colon): 10900 nM
- GI50 (HL-60(TB) leukemia): 292 nM
- TGI (HL-60(TB) leukemia): 2680 nM
- GI50 (NCI/ADR-RES ovarian): 359 nM
- TGI (NCI/ADR-RES ovarian): 12400 nM
- GI50 (786-0 renal): 523 nM
- TGI (786-0 renal): 14400 nM
- GI50 (OVCAR-3 ovarian): 379 nM
- TGI (OVCAR-3 ovarian): 5920 nM
- GI50 (KM12 colon): 474 nM
- TGI (KM12 colon): 12000 nM
- GI50 (HCT-15 colon): 408 nM
- TGI (HCT-15 colon): 8680 nM
- GI50 (SW-620 colon): 517 nM
- TGI (SW-620 colon): 17300 nM
- GI50 (PC-3 prostate): 415 nM
- TGI (PC-3 prostate): 16000 nM
- GI50 (MDA-MB-435): 187 nM
- TGI (MDA-MB-435): 484 nM
- GI50 (CAKI-1 renal): 208 nM
- TGI (CAKI-1 renal): 15000 nM
- GI50 (HS 578T breast): 381 nM
- TGI (HS 578T breast): 8870 nM
- GI50 (SN12C renal): 635 nM
- TGI (SN12C renal): 15500 nM
- GI50 (A498 renal): 317 nM
- TGI (A498 renal): 1030 nM
- GI50 (EKVX NSCLC): 598 nM
- TGI (EKVX NSCLC): 20400 nM
- GI50 (RPMI-8226 leukemia): 369 nM
- TGI (RPMI-8226 leukemia): 4450 nM
- GI50 (IGROV1 ovarian): 472 nM
- TGI (IGROV1 ovarian): 13900 nM
- GI50 (COLO 205 colon): 592 nM
- TGI (COLO 205 colon): 4920 nM
- GI50 (BT-549 breast): 1350 nM
- TGI (BT-549 breast): 12700 nM
- GI50 (HCC-2998 colon): 886 nM
- TGI (HCC-2998 colon): 4910 nM
- GI50 (UACC-257 melanoma): 12900 nM
- TGI (UACC-257 melanoma): 35500 nM
- GI50 (OVCAR-8 ovarian): 564 nM
- TGI (OVCAR-8 ovarian): 18800 nM
- GI50 (HT29 colon): 557 nM
- TGI (HT29 colon): 13700 nM
- GI50 (UACC-62 melanoma): 439 nM
- TGI (UACC-62 melanoma): 15000 nM
- GI50 (TK-10 renal): 8090 nM
- TGI (TK-10 renal): 33900 nM
- GI50 (MCF7 breast): 303 nM
- TGI (MCF7 breast): 12900 nM
- GI50 (A549 NSCLC): 717 nM
- TGI (A549 NSCLC): 18100 nM
- GI50 (SR leukemia): 349 nM
- GI50 (K-562 leukemia): 261 nM
- TGI (K-562 leukemia): 5520 nM
- GI50 (OVCAR-5 ovarian): 1160 nM
- TGI (OVCAR-5 ovarian): 15000 nM
- GI50 (NCI-H23 lung): 535 nM
- TGI (NCI-H23 lung): 14200 nM
- GI50 (SK-MEL-28 melanoma): 3340 nM
- TGI (SK-MEL-28 melanoma): 21600 nM
- GI50 (UO-31 renal): 406 nM
- TGI (UO-31 renal): 16500 nM
- GI50 (DU-145 prostate): 453 nM
- TGI (DU-145 prostate): 15200 nM
- GI50 (RXF 393 renal): 215 nM
- TGI (RXF 393 renal): 603 nM
- GI50 (SNB-75 CNS): 209 nM
- TGI (SNB-75 CNS): 1700 nM
- GI50 (NCI-H226 lung): 419 nM
- TGI (NCI-H226 lung): 9600 nM
- GI50 (SF-295 CNS): 368 nM
- TGI (SF-295 CNS): 11600 nM
- GI50 (HOP-62 NSCLC): 406 nM
- TGI (HOP-62 NSCLC): 16700 nM
- GI50 (U251 CNS): 445 nM
- TGI (U251 CNS): 12900 nM
- GI50 (SF-268 CNS): 787 nM
- TGI (SF-268 CNS): 14900 nM
- GI50 (SK-OV-3 ovarian): 657 nM
- TGI (SK-OV-3 ovarian): 22200 nM
- GI50 (OVCAR-4 ovarian): 1610 nM
- TGI (OVCAR-4 ovarian): 20700 nM
- GI50 (T-47D breast): 527 nM
- TGI (T-47D breast): 30400 nM
- GI50 (SF-539 CNS): 301 nM
- TGI (SF-539 CNS): 1270 nM
- GI50 (HOP-92 NSCLC): 1180 nM
- TGI (HOP-92 NSCLC): 16600 nM
- GI50 (CCRF-CEM leukemia): 355 nM
- GI50 (NCI-H460 lung): 381 nM
- TGI (NCI-H460 lung): 10500 nM
- GI50 (LOX IMVI melanoma): 656 nM
- TGI (LOX IMVI melanoma): 12300 nM

Structure (SMILES): Cc1ccc(-c2cc3nc(C(Cl)Cl)nc(-c4ccco4)n3n2)cc1
- GI50 (MOLT-4 leukemia): > 100000 nM
- TGI (MOLT-4 leukemia): > 100000 nM
- GI50 (MALME-3M melanoma): > 100000 nM
- TGI (MALME-3M melanoma): > 100000 nM
- GI50 (SK-MEL-5 melanoma): > 100000 nM
- TGI (SK-MEL-5 melanoma): > 100000 nM
- GI50 (M14 melanoma): > 100000 nM
- TGI (M14 melanoma): > 100000 nM
- GI50 (ACHN renal): 273 nM
- TGI (ACHN renal): 1360 nM
- GI50 (NCI-H522 lung): > 100000 nM
- TGI (NCI-H522 lung): > 100000 nM
- GI50 (MDA-MB-231 breast): 289 nM
- TGI (MDA-MB-231 breast): 1850 nM
- GI50 (HL-60(TB) leukemia): 348 nM
- TGI (HL-60(TB) leukemia): 3250 nM
- GI50 (786-0 renal): 2030 nM
- TGI (786-0 renal): > 100000 nM
- GI50 (KM12 colon): 1810 nM
- TGI (KM12 colon): 5520 nM
- GI50 (HCT-15 colon): 845 nM
- TGI (HCT-15 colon): > 100000 nM
- GI50 (SW-620 colon): 583 nM
- TGI (SW-620 colon): > 100000 nM
- GI50 (PC-3 prostate): 506 nM
- TGI (PC-3 prostate): 4490 nM
- GI50 (CAKI-1 renal): 832 nM
- TGI (CAKI-1 renal): 4740 nM
- GI50 (SN12C renal): > 100000 nM
- TGI (SN12C renal): > 100000 nM
- GI50 (RPMI-8226 leukemia): 2380 nM
- TGI (RPMI-8226 leukemia): > 100000 nM
- GI50 (IGROV1 ovarian): 2650 nM
- TGI (IGROV1 ovarian): > 100000 nM
- GI50 (BT-549 breast): > 100000 nM
- TGI (BT-549 breast): > 100000 nM
- GI50 (HCC-2998 colon): 321 nM
- TGI (HCC-2998 colon): 1400 nM
- GI50 (OVCAR-8 ovarian): 604 nM
- TGI (OVCAR-8 ovarian): > 100000 nM
- GI50 (HT29 colon): 328 nM
- TGI (HT29 colon): 1230 nM
- GI50 (SR leukemia): > 100000 nM
- TGI (SR leukemia): > 100000 nM
- GI50 (UO-31 renal): 523 nM
- TGI (UO-31 renal): 3990 nM
- GI50 (DU-145 prostate): 404 nM
- TGI (DU-145 prostate): 2350 nM
- GI50 (SNB-75 CNS): 186 nM
- TGI (SNB-75 CNS): 1710 nM
- GI50 (NCI-H226 lung): > 100000 nM
- TGI (NCI-H226 lung): > 100000 nM
- GI50 (HOP-62 NSCLC): 298 nM
- TGI (HOP-62 NSCLC): 3820 nM
- GI50 (SF-268 CNS): 1650 nM
- TGI (SF-268 CNS): > 100000 nM
- GI50 (SK-OV-3 ovarian): 3090 nM
- TGI (SK-OV-3 ovarian): > 100000 nM
- GI50 (SF-539 CNS): 927 nM
- TGI (SF-539 CNS): 3330 nM
- GI50 (HOP-92 NSCLC): 339 nM
- TGI (HOP-92 NSCLC): 2690 nM
- GI50 (CCRF-CEM leukemia): > 100000 nM
- TGI (CCRF-CEM leukemia): > 100000 nM
- GI50 (NCI-H460 lung): 352 nM
- TGI (NCI-H460 lung): 1470 nM
- GI50 (LOX IMVI melanoma): > 100000 nM
- TGI (LOX IMVI melanoma): > 100000 nM
